Results on 1 compound are retold here after ChEMBL document CHEMBL5030514, “Discovery of Anti-TNBC Agents Targeting PTP1B: Total Synthesis, Structure-Activity Relationship, In Vitro and In Vivo Investigations of Jamunones” (J Med Chem, 2021).

pIC50: −log10 of the molar value.

Usually pIC50 stands for the negative decadic logarithm of the IC50, by convention in mol/L.

In data set [1] the test system is MDA-MB-231. Briefly: Antiproliferative activity against human MDA-MB-231 cells measured by MTT assay. In kind it is functional, cell-based. In general terms: Formazan colour is commonly taken as a measure of viable cells.
The nature of data set [2]: Selective index, ratio of IC50 for HUVEC cells to IC50 of MDA-MB-231 cells. The settings on record: human, HUVEC cells versus MDA-MB-231 cells; read-out: Selectivity Index. The class given is toxicity.
Data set [3] deals with MCF7. The data set can be described thus: Induction of mitochondrial apoptosis in human MCF-7 cells assessed as decrease in mitochondrial membrane potential levels at 5 uM measured after 24 hrs by flow cytometry. The class given is functional. More on the design: scale not given: the % may be the effect or the level left. For orientation: A flow cytometer gives signals particle by particle.

Data set [4] relates to MCF7. Briefly: Induction of apoptosis in human MCF-7 cells assessed as decrease in Bcl-2 level at 1.67 to 15 uM measured after 24 hrs by Western blot analysis. In kind it is functional, cell-based. The settings on record: dose 1.67-15 µM. A general note: A western blot detects proteins with antibodies after separation by electrophoresis.
The test system of data set [5] is MDA-MB-231. The data set can be described thus: Cell cycle arrest in human MDA-MB-231 cells assessed as upregulation of p21 level by Western blot analysis. The class given is functional, cell-based.
Data set [6] can be described thus: Toxicity in human MDA-MB-231 cells xenografted in BALB/c nude mouse assessed as change in body weight at 15 to 30 mg/kg, ip administered once for every other day for 20 days relative to control. In kind it is organism-based. The settings on record: in vivo, 480 h, dose 15-30 mg/kg, time 20 day.
Data set [7] deals with MDA-MB-231. The data set can be described thus: Induction of mitochondrial apoptosis in human MDA-MB-231 cells assessed as early apoptotic cells at 5 uM measured after 24 hrs by FITC -annexin V/PI double staining based flow cytometric analysis (reference value: 2.2%). The class given is functional.
For data set [8], the system named is MCF7. The data set can be described thus: Induction of mitochondrial apoptosis in human MCF7 cells assessed as viable cells at 15 uM measured after 24 hrs by FITC -annexin V/PI double staining based flow cytometric analysis (reference value: 93.2%). The class given is functional. Conditions: read-out: Activity; call rule not given here.

`CCCC/C=C/CCCCCCCCCC1(O)CC(=O)c2c(O)c(C)c(O)c(C)c2O1` (stereo not drawn): the pIC50 in data set [1] was 5.17. The selectivity ratio in data set [2] is 6.78. For the same compound, the Activity in data set [3] is 68.7%; in data set [4], “Dose-Dependent Effect”; in data set [5], “Dose-Dependent Effect”; in data set [6] it was “Not Active”; in data set [7], 6.1%. Besides, the viability at 15 µM in data set [8] stood at 78.7%.
